Source: PMC3591448, “Profile of the GSK Published Protein Kinase Inhibitor Set Across ATP-Dependent and-Independent Luciferases: Implications for Reporter-Gene Assays” (PLoS ONE, 2013)
Read-outs that look alike come from different tables or passages of the source.

Tests used:
VEGFR2 = details: ref Harris, P.A., et al. 2005; read-out: PKI IC50 (µM), VEGFR2; cited from earlier work
[1] = target: T1, Renilla luciferase (RLuc) (Renilla reniformis, UniProt P27652); experiment: RLuc enzymatic assay (purified enzyme, qHTS, 1536-well); format: biochemical; details: 1 nM RLuc, 5 µM coelenterazine-H
T1 sequence (P27652 1-311): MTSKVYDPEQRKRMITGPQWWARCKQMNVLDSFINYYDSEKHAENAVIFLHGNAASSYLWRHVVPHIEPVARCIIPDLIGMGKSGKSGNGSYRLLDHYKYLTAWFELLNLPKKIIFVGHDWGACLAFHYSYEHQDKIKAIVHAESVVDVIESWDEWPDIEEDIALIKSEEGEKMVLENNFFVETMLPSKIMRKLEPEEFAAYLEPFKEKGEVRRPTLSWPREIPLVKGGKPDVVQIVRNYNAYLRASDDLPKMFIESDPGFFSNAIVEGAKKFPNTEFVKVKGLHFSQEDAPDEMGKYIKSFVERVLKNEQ
Experimental: (§1) 1 µL of purified luciferase was then dispensed into each well for final concentrations 10 nM FLuc or 1 nM RLuc. The bioluminescence outputs were measured by an EnVision reader (PerkinElmer, Wellesley, MA). Due to the relatively short luminescence duration of the RLuc assay, dispense time constants were set to match closely to the read time of the plate reader. As a result, each individual well was read with approximately the same time delay from reagent dispense to signal acquisition. See Table 1 for the 1536-well assay protocols.
(§2) Data from each assay was normalized plate-wise to corresponding intraplate controls as described previously, [17]. The same control data sets were also used for the calculation of Z′ factors from each assay. In all assays, wells containing DMSO were used as no-response controls. For the FLuc enzymatic assay, each compound-treated well on the plate was normalized to the average readings of n = 24 PTC124 treated wells and n = 48 DMSO wells from the same plate. Wells were scaled to a full range of DMSO and zero, and then normalized using the maximum response observed in the screen as 100% activity. For the RLuc enzymatic assay, n = 24 BTS treated wells for the positive control, n = 48 DMSO. MSR values were calculated using the cumulative potency differences of the de-interleaved duplicate control titrations from each plate as previously described. The normalized data from each assay plate set was corrected using DMSO-only treated assay plates read at the start and end of each assay run, and the resulting inter-plate titration data fit, using in-house software, to the standard Hill equation and dose-response curves automatically classified as described previously.
(§3) The curve classification scheme for assignment of resulting curve-fit data into CRC classes was according to Inglese et al. as follows: class 1 curves (far left) display two asymptotes, an inflection point, and r^2≥0.9; subclasses 1a vs. 1b are differentiated by full (>80%) vs. partial (≤80%) response. Class 2 curves (second from left) display a single left-hand asymptote and inflection point; subclasses 2a (or 2.1) and 2b (2.2) are differentiated by a max response and r^2, >80% and >0.9 or <80% and <0.9, respectively. Class 3 curves (second from right) have a single left-hand asymptote, no inflection point, and a response >3SD from the mean activity of the sample field.

[2] = target: firefly luciferase, Photinus pyralis (FLuc) (Photinus pyralis, UniProt P08659); experiment: biochemical; format: biochemical; details: for FLuc Parameters Hill Coef: Hill equation fit of CRC; for Emax: response relative to PTC124 control inhibitor, negative = inhibition, read-out: FLuc Parameters Efficacy
firefly luciferase, Photinus pyralis (FLuc), sequence (P08659 whole entry): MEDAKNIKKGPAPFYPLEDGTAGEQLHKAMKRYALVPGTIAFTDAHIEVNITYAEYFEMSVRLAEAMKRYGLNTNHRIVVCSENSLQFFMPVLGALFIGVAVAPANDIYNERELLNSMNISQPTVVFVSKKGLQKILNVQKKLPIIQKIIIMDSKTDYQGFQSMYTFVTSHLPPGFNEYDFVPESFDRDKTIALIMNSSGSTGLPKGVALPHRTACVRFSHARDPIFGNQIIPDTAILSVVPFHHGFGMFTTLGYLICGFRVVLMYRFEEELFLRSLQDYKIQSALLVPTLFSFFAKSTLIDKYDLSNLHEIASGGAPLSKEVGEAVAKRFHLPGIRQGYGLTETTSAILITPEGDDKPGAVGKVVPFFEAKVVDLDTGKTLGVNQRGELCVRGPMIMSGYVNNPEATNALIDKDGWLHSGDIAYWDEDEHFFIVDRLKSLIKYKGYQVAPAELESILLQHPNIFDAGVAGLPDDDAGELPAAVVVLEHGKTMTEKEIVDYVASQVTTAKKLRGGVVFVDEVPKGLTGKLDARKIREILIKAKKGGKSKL
Experimental: as §1, with “The” for “1 µL of purified luciferase was then dispensed into each well for final concentrations 10 nM FLuc or 1 nM RLuc. The”
as §2, §3

CDK = system: CDK; set-up: method as in Stevens, K. L., et al. 2008; details: ref Stevens, K. L., et al. 2008; read-out: PKI IC50 (µM), CDK; cited from earlier work
[3] = 10 nM FLuc, 10 µM D-luciferin, 10 µM ATP, read-out: FLuc Parameters IC50

| Structure (SMILES) | IC50 (VEGFR2) | RLuc Curve Class [1] | IC50 [2, 3] | FLuc Parameters Hill Coef [2] | IC50 ([2]; Table 3, read-out: FLuc IC50) | Emax [2] | IC50 (CDK) | IC50 ([2]; Figure 2b, representative structures of clusters, read-out: FLuc IC50) |
| --- | --- | --- | --- | --- | --- | --- | --- | --- |
| COc1ccccc1Nc1ncc(-c2ccccc2)o1 [GW577921A] | 0.38 µM | 4 | 1030 nM | 1 | 1030 nM | 102% |  |  |
| c1cc(-c2cnn3nc(N4CCOCC4)ccc23)nc(NC2CC2)n1 [GW708336X] |  | 4 | 4610 nM | 1 | 4610 nM | 108% | 0.4 µM | 5000 nM |
